For experiment [1], the system named is primordial follicles of ovarian cortex. The experiment can be described thus: Culture of ewe ovarian cortex fragments for 10 days: start of growth of primordial follicles. The class given is cell-based. The settings on record: for start of growth of the primordial follicles: 10 days culture, vs control fragments; for number of primary follicles / number of primordial follicles over time: D0-D10. How it is done:
Ovaries of adult ewes are collected immediately after slaughter. The ovaries are placed in an organ transport medium without serum (X-vivo, Bio Whittaker, Walkersville, Md., USA) at 10° C. and transported to the laboratory. Approximately 1 h after removal, the cortex is isolated from the medulla then fractionated into slices of 2 mm thickness (1 cm^2, average weight of 212 mg) after rinsing in new X-vivo. The cortex fragments are cultured in an oven under 5% oxygen for 10 days in well plates in the presence of DMEM. The medium is changed every 2 days.
The procedure used is the same as for Example 1, except that the somatostatin is replaced with one of its agonist analogues, namely the synthetic peptide of formula c[Tic-Tyr-DTrp-Lys-Abu-Phe] (hereafter AG1 peptide).
The procedure used is the same as for Example 1, except that the somatostatin is replaced by one of its antagonist analogues, namely the synthetic peptide of formula Cpa-c(DCys-3-Pal-DTrp-NMeLys-Thr-Cys)-2-Nal-NH2 (hereafter ANT1 peptide).

For experiment [2], the system named is pituitary cells producing LH and FSH; preovulatory follicles. The settings on record: rats, in vivo administration; cited from earlier work.
The subject of experiment [3] is granulosa cells. The note with it: in vitro, model of granulosa cells; cited from earlier work.
Experiment [4] has as its system granulosa cells. The note with it: pig granulosa cells; cited from earlier work.
For a further experiment, the system named is preovulatory oocyte. The settings on record: pigs; cited from earlier work.
Experiment [5] has as its system granulosa cells from preovulatory follicles. The settings on record: women, in vitro; cited from earlier work.
The conditions of experiment [6]: women, in vivo; cited from earlier work.
For experiment [7] the following is noted: co-administered with FSH; infertile patients with polycystic ovary syndrome; cited from earlier work.
Experiment [8] can be described thus: Envisaged case: patient with polycystic ovary syndrome treated with lanreotide acetate. The class given is in vivo, women. The settings on record: 120 mg/month.

Where a SMILES comes first, the peptide text is derived from it. [ ]: non-standard residue; d: D form. Tic = O=C(O)[C@@H]1Cc2ccccc2CN1; Abu = CC[C@H](N)C(=O)O

Regarding `CC[C@@H]1NC(=O)[C@H](CCCCN)NC(=O)[C@@H](Cc2c[nH]c3ccccc23)NC(=O)[C@H](Cc2ccc(O)cc2)NC(=O)[C@@H]2Cc3ccccc3CN2C(=O)[C@H](Cc2ccccc2)NC1=O` [AG1 peptide, c[Tic-Tyr-DTrp-Lys-Abu-Phe]] (cyclo([Tic]Y[dW]K[Abu]F)), in experiment [1] (AG1 peptide 10^−9 M, FIG. 4), the “start of growth of the primordial follicles” value is given as “very significantly inhibits”, the “number of primary follicles” value is reported as “absence of increase” and the “number of primordial follicles over time” value is recorded as “maintenance over time”.
For the molecule `C[C@H](N)C(=O)NCC(=O)N[C@H]1CSSC[C@@H](C(=O)O)NC(=O)[C@H](CO)NC(=O)[C@H]([C@@H](C)O)NC(=O)[C@H](Cc2ccccc2)NC(=O)[C@H]([C@@H](C)O)NC(=O)[C@H](CCCCN)NC(=O)[C@H](Cc2c[nH]c3ccccc23)NC(=O)[C@H](Cc2ccccc2)NC(=O)[C@H](Cc2ccccc2)NC(=O)[C@H](CC(N)=O)NC(=O)[C@H](CCCCN)NC1=O` [SST], the “number of pituitary cells producing LH and FSH and number of preovulatory follicles in the ovary” value in [2] is listed as “seems to reduce”. For the same molecule, the “aromatase and production of progesterone, stimulated by FSH” value with granulosa cells [3] is listed as “inhibits”. Further, the “increase in cAMP induced by LH and forskolin” value in the experiment on granulosa cells [4] was “inhibits”. Moreover, in the experiment with preovulatory oocyte, the “nuclear maturation of the preovulatory oocyte” value is listed as “seems to inhibit”. Moreover, the “synthesis of IGF-BP1 and of progesterone” value in experiment [5] is listed as “inhibiting”. Also, in experiment [6], the “secretion of LH by the pituitary, production of androgens and IGF-1 serum levels” value was “capable of reducing”; the “serum levels of IGF-BP3” value was “increases”. The “follicle growth induced by the administration of FSH” value in experiment [7] is on record as “not however accompanied by a significant impact”.
`C[C@H](N)C(=O)NCC(=O)N[C@H]1CSSC[C@@H](C(=O)O)NC(=O)[C@H](CO)NC(=O)[C@H]([C@@H](C)O)NC(=O)[C@H](Cc2ccccc2)NC(=O)[C@H]([C@@H](C)O)NC(=O)[C@H](CCCCN)NC(=O)[C@H](Cc2c[nH]c3ccccc23)NC(=O)[C@H](Cc2ccccc2)NC(=O)[C@H](Cc2ccccc2)NC(=O)[C@H](CC(N)=O)NC(=O)[C@H](CCCCN)NC1=O` [SST14]: in experiment [1] (SST14 10^−9 M to 10^−6 M, FIGS. 1 and 2), the “start of growth of the primordial follicles” value is “very significantly inhibits”. Also, the “number of primordial follicles over time” value in experiment [1] (SST14 10^−9 M to 10^−6 M, FIG. 1) was “maintenance over time”. The “number of primary follicles” value in experiment [1] (SST14 10^−9 M to 10^−6 M, FIG. 2) is on record as “absence of increase”.
As to `CC(C)[C@@H]1NC(=O)[C@H](CCCCN)NC(=O)[C@@H](Cc2c[nH]c3ccccc23)NC(=O)[C@H](Cc2ccc(O)cc2)NC(=O)[C@@H](NC(=O)[C@H](N)Cc2ccc3ccccc3c2)CSSC[C@@H](C(=O)N[C@H](C(N)=O)[C@@H](C)O)NC1=O` [lanreotide acetate], the “ovarian volume and number of antral follicles (ultrasound)” value in experiment [8] (4th month of treatment) was “reduction”. The pregnancy test entry in experiment [8] (8th month of treatment) is “positive”. In [8] (after 3 months of treatment), the periods entry is recorded as “spontaneous periods”.

Source of the values: patent US20070155659A1, “Use of somatostatin or one of its analogues for preparing a medicament intended to regulate the ovarian follicular reserve in non-menopausal women” (Societe de Conseils de Recherches et D'Application, priority 2003, published 2007).
